Experimental data: ChEMBL document CHEMBL1146459, “Production of biologically active taxoids by a callus culture of Taxus cuspidata” (2004)

How the values were obtained:
[1] = Reversal of multidrug resistance in human 2780AD cells assessed as [3H]vincristine accumulation at 1 ug/mL after 2 hrs relative to verapamil; assay type: functional, A2780 ADR
[2] = Reversal of multidrug resistance in human 2780AD cells assessed as [3H]vincristine accumulation at 10 ug/mL after 2 hrs relative to verapamil; assay type: functional, A2780 ADR
[3] = Growth inhibition of human BSY1 cells after 48 hrs by SRB assay; assay type: functional; conditions: BSY-1, 48 h
[4] = Growth inhibition of human HBC5 cells after 48 hrs by SRB assay; assay type: functional; conditions: HBC5, 48 h
U-251 = test: Growth inhibition of human U251 cells after 48 hrs by SRB assay; assay type: functional; conditions: U-251, 48 h
SF-295 = test: Growth inhibition of human SF295 cells after 48 hrs by SRB assay; assay type: functional; conditions: SF-295, 48 h
SF-539 = test: Growth inhibition of human SF539 cells after 48 hrs by SRB assay; assay type: functional; conditions: SF-539, 48 h
SNB-75 = test: Growth inhibition of human SNB75 cells after 48 hrs by SRB assay; assay type: functional; conditions: SNB-75, 48 h
SNB-78 = test: Growth inhibition of human SNB78 cells after 48 hrs by SRB assay; assay type: functional; conditions: SNB-78, 48 h
HCT-15 = test: Growth inhibition of human HCT15 cells after 48 hrs by SRB assay; assay type: functional; conditions: HCT-15, 48 h
HCT-116 = test: Growth inhibition of human HCT116 cells after 48 hrs by SRB assay; assay type: functional; conditions: HCT-116, 48 h
NCI-H522 = test: Growth inhibition of human NCI-H522 cells after 48 hrs by SRB assay; assay type: functional; conditions: NCI-H522, 48 h
NCI-H460 = test: Growth inhibition of human NCI-H460 cells after 48 hrs by SRB assay; assay type: functional; conditions: NCI-H460, 48 h
A549 = test: Growth inhibition of human A549 cells after 48 hrs by SRB assay; assay type: functional; conditions: A549, 48 h
DMS-273 = test: Growth inhibition of human DMS273 cells after 48 hrs by SRB assay; assay type: functional; conditions: DMS-273, 48 h
OVCAR-3 = test: Growth inhibition of human OVCAR-3 cells after 48 hrs by SRB assay; assay type: functional; conditions: OVCAR-3, 48 h
OVCAR-8 = test: Growth inhibition of human OVCAR8 cells after 48 hrs by SRB assay; assay type: functional; conditions: OVCAR-8, 48 h
SK-OV-3 = test: Growth inhibition of human SKOV3 cells after 48 hrs by SRB assay; assay type: functional; conditions: SK-OV-3, 48 h
[5] = Growth inhibition of human MKN1 cells after 48 hrs by SRB assay; assay type: functional; conditions: MKN-1, 48 h
MKN-7 = test: Growth inhibition of human MKN7 cells after 48 hrs by SRB assay; assay type: functional; conditions: MKN-7, 48 h
MKN-28 = test: Growth inhibition of human MKN28 cells after 48 hrs by SRB assay; assay type: functional; conditions: MKN-28, 48 h
MKN-45 = test: Growth inhibition of human MKN45 cells after 48 hrs by SRB assay; assay type: functional; conditions: MKN-45, 48 h
[6] = read-out: LC50 (the source's name)
[7] = read-out: pLC50 (the source's name) (converted)

Compound: C=C1[C@@H](OC(C)=O)CC[C@]2(C)[C@@H]1C[C@@H]1C[C@H](OC(C)=O)C(C)=C([C@@H](O)[C@@H]2OC(=O)/C=C/c2ccccc2)C1(C)C
- Activity [1]: 191%
- Activity [2]: 122%
- GI50 ([3]; read-out: GI50): 6.9 µM
- TGI ([3]; read-out: TGI): 82 µM
- GI50 ([3]; read-out: pGI50 (converted)): 6.92 µM
- TGI ([3]; read-out: pTGI (converted)): 87.1 µM
- CC50 [4, 6]: 100 µM
- TGI ([4]; read-out: TGI): 100 µM
- GI50 ([4]; read-out: pGI50 (converted)): > 100 µM
- CC50 [4, 7]: 100 µM
- TGI ([4]; read-out: pTGI (converted)): 100 µM
- GI50 (U-251; read-out: GI50): 71 µM
- CC50 (U-251; [6]): 100 µM
- TGI (U-251; read-out: TGI): 100 µM
- GI50 (U-251; read-out: pGI50 (converted)): 70.8 µM
- CC50 (U-251; [7]): 100 µM
- TGI (U-251; read-out: pTGI (converted)): 100 µM
- GI50 (SF-295; read-out: GI50): 10 µM
- TGI (SF-295; read-out: TGI): 100 µM
- GI50 (SF-295; read-out: pGI50 (converted)): 10.5 µM
- TGI (SF-295; read-out: pTGI (converted)): 100 µM
- GI50 (SF-539; read-out: GI50): > 100 µM
- CC50 (SF-539; [6]): 100 µM
- TGI (SF-539; read-out: TGI): 100 µM
- GI50 (SF-539; read-out: pGI50 (converted)): > 100 µM
- CC50 (SF-539; [7]): 100 µM
- TGI (SF-539; read-out: pTGI (converted)): 100 µM
- GI50 (SNB-75; read-out: GI50): 7.3 µM
- CC50 (SNB-75; [6]): 100 µM
- TGI (SNB-75; read-out: TGI): 68 µM
- GI50 (SNB-75; read-out: pGI50 (converted)): 7.24 µM
- CC50 (SNB-75; [7]): 100 µM
- TGI (SNB-75; read-out: pTGI (converted)): 67.6 µM
- GI50 (SNB-78; read-out: GI50): 3.2 µM
- TGI (SNB-78; read-out: TGI): 100 µM
- GI50 (SNB-78; read-out: pGI50 (converted)): 3.16 µM
- TGI (SNB-78; read-out: pTGI (converted)): 100 µM
- GI50 (HCT-15; read-out: GI50): 29 µM
- CC50 (HCT-15; [6]): > 100 µM
- TGI (HCT-15; read-out: TGI): 100 µM
- GI50 (HCT-15; read-out: pGI50 (converted)): 28.8 µM
- CC50 (HCT-15; read-out: pLC50 (converted)): > 100 µM
- TGI (HCT-15; read-out: pTGI (converted)): 100 µM
- GI50 (HCT-116; read-out: GI50): 5.6 µM
- CC50 (HCT-116; [6]): 100 µM
- TGI (HCT-116; read-out: TGI): 100 µM
- GI50 (HCT-116; read-out: pGI50 (converted)): 5.62 µM
- CC50 (HCT-116; [7]): 100 µM
- TGI (HCT-116; read-out: pTGI (converted)): 100 µM
- GI50 (NCI-H522; read-out: GI50): 3.1 µM
- CC50 (NCI-H522; [6]): 100 µM
- TGI (NCI-H522; read-out: TGI): 81 µM
- GI50 (NCI-H522; read-out: pGI50 (converted)): 3.09 µM
- CC50 (NCI-H522; [7]): 100 µM
- TGI (NCI-H522; read-out: pTGI (converted)): 100 µM
- GI50 (NCI-H460; read-out: GI50): 44 µM
- TGI (NCI-H460; read-out: TGI): 100 µM
- GI50 (NCI-H460; read-out: pGI50 (converted)): 41.7 µM
- TGI (NCI-H460; read-out: pTGI (converted)): 100 µM
- GI50 (A549; read-out: GI50): 9.6 µM
- CC50 (A549; [6]): 100 µM
- TGI (A549; read-out: TGI): 100 µM
- GI50 (A549; read-out: pGI50 (converted)): 9.55 µM
- CC50 (A549; [7]): 100 µM
- TGI (A549; read-out: pTGI (converted)): 100 µM
- GI50 (DMS-273; read-out: GI50): 4.2 µM
- CC50 (DMS-273; [6]): 100 µM
- TGI (DMS-273; read-out: TGI): 100 µM
- GI50 (DMS-273; read-out: pGI50 (converted)): 4.17 µM
- CC50 (DMS-273; [7]): 100 µM
- TGI (DMS-273; read-out: pTGI (converted)): 100 µM
- GI50 (OVCAR-3; read-out: GI50): 5 µM
- CC50 (OVCAR-3; [6]): > 100 µM
- TGI (OVCAR-3; read-out: TGI): 100 µM
- GI50 (OVCAR-3; read-out: pGI50 (converted)): 5.01 µM
- CC50 (OVCAR-3; read-out: pLC50 (converted)): > 100 µM
- TGI (OVCAR-3; read-out: pTGI (converted)): 100 µM
- GI50 (OVCAR-8; read-out: GI50): > 100 µM
- TGI (OVCAR-8; read-out: TGI): 100 µM
- GI50 (OVCAR-8; read-out: pGI50 (converted)): > 100 µM
- TGI (OVCAR-8; read-out: pTGI (converted)): 100 µM
- GI50 (SK-OV-3; read-out: GI50): > 100 µM
- CC50 (SK-OV-3; [6]): 100 µM
- TGI (SK-OV-3; read-out: TGI): 100 µM
- GI50 (SK-OV-3; read-out: pGI50 (converted)): > 100 µM
- CC50 (SK-OV-3; [7]): 100 µM
- TGI (SK-OV-3; read-out: pTGI (converted)): 100 µM
- GI50 ([5]; read-out: GI50): 93 µM
- TGI ([5]; read-out: TGI): 100 µM
- GI50 ([5]; read-out: pGI50 (converted)): 93.3 µM
- TGI ([5]; read-out: pTGI (converted)): 100 µM
- GI50 (MKN-7; read-out: GI50): 5.1 µM
- CC50 (MKN-7; [6]): 100 µM
- TGI (MKN-7; read-out: TGI): 100 µM
- GI50 (MKN-7; read-out: pGI50 (converted)): 5.13 µM
- CC50 (MKN-7; [7]): 100 µM
- TGI (MKN-7; read-out: pTGI (converted)): 100 µM
- GI50 (MKN-28; read-out: GI50): 12 µM
- CC50 (MKN-28; [6]): > 100 µM
- TGI (MKN-28; read-out: TGI): 100 µM
- GI50 (MKN-28; read-out: pGI50 (converted)): 11.7 µM
- CC50 (MKN-28; read-out: pLC50 (converted)): > 100 µM
- TGI (MKN-28; read-out: pTGI (converted)): 100 µM
- CC50 (MKN-45; [6]): 100 µM
- TGI (MKN-45; read-out: TGI): 100 µM
- GI50 (MKN-45; read-out: pGI50 (converted)): > 100 µM
- CC50 (MKN-45; [7]): 100 µM
- TGI (MKN-45; read-out: pTGI (converted)): 100 µM
